Laboratory results reported in patent publication US20100022402A1, “Methods and Compositions for the In Vitro High-Throughput Detection of Protein/Protein Interactions” (priority 2004, published 2010).
Read-outs that look alike come from different tables or passages of the source. One block for each compound: values may come before it.

What was measured:
[1] = test system: λD-Acid:λD-Base association; experiment: Titration of λD-Acid:λD-Base phage association by free competitors (loss of double resistant multilysogen formation); type: binding; conditions: for cross-inhibition of λD-Acid:λD-Base: non-partner free proteins; for IC50, inhibition of Acid/Base association: MOI of 0.0025, aptamer 0.001 μM to 5 μM, FIG. 6; for Kd: free synthetic peptide competing with aptamer interaction, read-out: apparent KD (concentration of free peptide that results in an IC50); for concentration found to inhibit the λD-Acid:λD-Base interaction: free amino acid
Procedure: Lambda display phages are used to co-infect cells at an MOI of 0.0025. In the presence of increasing concentrations of the Acidic (triangles) or Basic (square) Aptamer (0.001 μM to 5 μM), titration of Acid/Base association is scored by the loss of double resistant multilysogen formation. The point representing the maximum number of lysogens for this given MOI.
(§1) Display phages are assayed for their ability to associate with other phages bearing a potential binding partner, with a non-binding partner and with a non-display D vector phage (i.e. λA2 and λA3). The production of double antibiotic resistant (Cml^r/Kan^r) multilysogen E. coli LE392 is used to mark positive fusion D display protein-protein interaction. First, the phages are combined to yield a chosen MOI (a typical initial range is 0.002-0.04), and allowed to associate for 5 minutes at room temperature (RT) prior to dilution with 220 uL of Salted Association Buffer (SAB; 20 mM Tris.HCLpH7.4, 10 mM CaCl2, 10 mM MgCl2 and 100 mM NaCl). After 10 minutes at room temperature, 1×10^8 of fresh log-phase E. coli LE392 recovered in [LB+0.4% maltose+10 mM CaCl2] is added. Phage-phage association, co-infection and antibiotic gene expression are allowed to proceed for 45 min-1 h at RT, followed by plating on agar supplemented with 10^ug/mL Cml+30^ug/mL Kan. Plates are incubated overnight at 32° C. for lysogen formation.

[2] = test system: λD-CUE:λD-Ubiquitin association; experiment: Titration of λD-CUE:λD-Ubiquitin phage association by free proteins (loss of double resistant multilysogen formation); type: binding; conditions: for titration of λD-CUE:λD-Ubiquitin by non-partner peptides: acidic or basic aptamers
Procedure: Lambda display phages are used to co-infect cells at an MOI of 0.04. In the presence of increasing concentrations of the wtUbiquitin (diamonds), wt CUE (squares) or mutant CUEM419D (triangles) protein is added to the phage pair, and positive λD-CUE:λD-Ubiquitin association is scored by the loss of double resistant multilysogen formation. The results are tabulated as the number of colonies counted, with the point representing the maximum number of lysogens for this given MOI.
as §1

E. coli LE392 cells = experiment: Protein association assay: lysogen formation after infection with vector or display phages; type: cell-based; conditions: single input phage, MOI 0.1
Procedure: as §1

monoubiquitin = monoubiquitin (Homo sapiens, UniProt P0CG47); conditions: cited from earlier work
CUE = molecular target: T1, CUE (Saccharomyces cerevisiae, UniProt P54787); conditions: CUE binds itself via an alpha helix interface; read-out: Kd (dimerization); cited from earlier work
T1 construct: The CUE domain (50 amino acid residues), as characterized by the conserved MFP and LL motifs
T1 sequence (P54787 408-451 limits assumed): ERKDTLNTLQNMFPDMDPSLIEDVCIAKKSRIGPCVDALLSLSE

Compound: CUEM419D: non-binding mutant CUE protein (KKIEENERKDTLNTLQNDFPDMDPSLIEDVCIAKKSRIGPCVDALLSLSE)
cross-inhibition of λD-Acid:λD-Base [1]: no cross-inhibition
titration point of λD-CUE:λD-Ubiquitin association ([2]; MOI of 0.04, FIG. 7): no titration point
ability to challenge the λD-CUE:λD-Ubiquitin interaction ([2]; even at a concentration of 1 mM): unable to challenge

Compound: Ubiquitin
Number of Cml^r/Kan^r Cells (E. coli LE392 cells): 0
Number of Kan^r Cells (E. coli LE392 cells): 3 × 10^6

Kd ([2]; free protein, read-out: apparent KD, competition of λD-Cue:λD-Ubiquitin pair): 0.002 µM
Compound: wt CUE: free wild type CUE domain (50 amino acids) of Vsp9p (KKIEENERKDTLNTLQNMFPDMDPSLIEDVCIAKKSRIGPCVDALLSLSE)
Kd (monoubiquitin; CUE as a dimer (dimericCue:Ubiquitin), read-out: apparent KD, CUE binding Ubiquitin): 1.2 µM
Kd (monoubiquitin; CUE as a monomer, read-out: KD, CUE binding monoubiquitin): 20 µM
cross-inhibition of λD-Acid:λD-Base [1]: no cross-inhibition
Kd (CUE): 1000 µM

Compound: GRGRGRGR [Basic Aptamer, [Gly-Arg]4]
IC50, inhibition of Acid/Base association [1]: ~0.01 µM
Kd [1]: 0.01 µM
titration of λD-CUE:λD-Ubiquitin by non-partner peptides [2]: nor is λD-CUE:λD-Ubiquitin titrated

Compound: N=C(N)NCCC[C@H](N)C(=O)O [Arginine]
concentration found to inhibit the λD-Acid:λD-Base interaction [1]: 4.6 mM

Compound: GEGEGEGE [Acidic Aptamer, [Gly-Glu]4]
IC50, inhibition of Acid/Base association [1]: ~0.01 µM
Kd [1]: 0.01 µM
titration of λD-CUE:λD-Ubiquitin by non-partner peptides [2]: nor is λD-CUE:λD-Ubiquitin titrated

Compound: N[C@@H](CCC(=O)O)C(=O)O [Glutamic acid]
concentration found to inhibit the λD-Acid:λD-Base interaction [1]: 0.679 mM
